“And” between values parts separate entries of the source, which are not always exact repeats. Equal values may be shown once.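 Where inhibition never reached the appropriate level, the endpoint shown equals the highest concentration tested. Otherwise, values were interpolated linearly from a five-concentration, 48-hour dose response in 96-well plates. GI50 marks 50% less growth. TGI: total growth inhibition.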 Where a SMILES comes first, the peptide text is derived from it. Bridges are numbered along the chain shown (N, C = ends).
Tests used:
Test in all cases: NCI tumour cell line growth inhibition, 48 h
[1] = test system: MDA-N
[2] = test system: SN12K1 renal
[3] = test system: P388/ADR leukemia
[4] = test system: P388 leukemia

| Structure (SMILES) | TGI [1] | other results |
| --- | --- | --- |
| O=[N+]([O-])c1cc(C(F)(F)F)cc2n[se]nc12 | 3.85 µM |  |
| O=C1NC(c2cccc3ccccc23)Nc2ccccc21 (stereo unspecified) | 0.00629 µM and 0.0586 µM |  |
| O=C(O)CC(S)C(=O)O.[Li+].[Sb] (stereo unspecified) | > 100 µM | GI50 [1]: > 100 µM |
| CC(C)c1ccc(C(O)(C(=O)O)c2ccc(C(C)C)cc2)cc1 | > 100 µM |  |
| CCc1nc(N)nc(N)c1-c1ccc(N(C)Cc2ccccc2)c([N+](=O)[O-])c1 | 19.1 µM |  |
| C=C1C(=O)O[C@H]2C3OC3(C)CC/C=C(/C(=O)OC)[C@@H](OC(C)=O)[C@H](OC(=O)C3(C)OC3C)[C@H]12 (stereo partly specified) | 3.46 µM |  |
| O=C(O)C1C2C=CC(O2)C1C(=O)NCc1ccncc1 (stereo unspecified) | > 100 µM |  |
| CCC(C)C1NC(=O)C(CC(C)C)NC(=O)C(C(C)C)NC(=O)C2CSSCC(NC1=O)C(=O)N2 (stereo unspecified) (cyclo(CCVLI); disulfide 1-2; configuration not given here) | 0.339 µM |  |
| CN(CO)c1nc(N(C)CO)nc(N(C)CO)n1 | 39.3 µM and 63.4 µM | TGI [2]: 14.1 µM; TGI [3]: 69.1 µM; GI50 [1]: 24.8 µM; TGI [4]: 23.8 µM |
| CSc1nc(SC)c2c(C)c(Br)[nH]c2n1 | > 100 µM |  |
| CCCCCCCCCCCCCC(=O)NO | > 100 µM |  |
